Some results are limits rather than exact numbers.

The subject of the experiment is M. catarrhalis A894. In words: MIC determination by microdilution in cation-adjusted Mueller-Hinton Broth (NCCLS). The experiment is classed as cell-based. Conditions: Moraxella catarrhalis, pH 7.2-7.3. On the procedure: These assays have been performed following the description given in “Methods for dilution Antimicrobial Susceptibility Tests for Bacteria that Grow Aerobically, 4th ed.; Approved standard: NCCLS Document M7-A4; National Committee for Clinical Laboratory Standards: Villanova, Pa., USA, 1997”. Minimal inhibitory concentrations (MICs; mg/l) were determined in cation-adjusted Mueller-Hinton Broth (BBL) by a microdilution method following NCCLS guidelines (National Committee for Clinical Laboratory Standards. Methods for Dilution Antimicrobial Susceptibility). The pH of the test medium was 7.2-7.3. All Example compounds were tested against several Gram-positive and Gram-negative bacteria.
In general terms: In broth dilution the organism is exposed to a series of concentrations in liquid medium.
Consider `COc1ccc2ncnc(OC3CCN(C[C@@H]4CN(c5ccc6c(c5)OCCO6)C(=O)O4)C3)c2c1` (mixture of isomers) [Example 4, (R)-3-(2,3-dihydro-benzo[1,4]dioxin-6-yl)-5-[(RS)-3-(6-methoxy-quinazolin-4-yloxy)-pyrrolidin-1-ylmethyl]-oxazolidin-2-one], for which the MIC (as a rule, the lowest concentration found to suppress growth) was no more than 0.031 µg/mL.
Regarding `COc1ccc2nccc(NC(=O)C3CCN(C[C@@H]4CN(c5ccc6c(c5)NC(=O)CS6)C(=O)O4)C3)c2n1` (mixture of isomers) [Example 8, (RS)-1-[(R)-2-oxo-3-(3-oxo-3,4-dihydro-2H-benzo[1,4]thiazin-6-yl)-oxazolidin-5-ylmethyl]-pyrrolidine-3-carboxylic acid (6-methoxy-[1,5]naphthyridin-4-yl)-amide], the MIC is no more than 0.031 µg/mL.
The same measure for `COc1ccc2nccc(/C=C/C3CCN(C[C@@H]4CN(c5ccc6c(c5)NC(=O)CS6)C(=O)O4)C3)c2n1` (mixture of isomers) [Example 9, 6-((R)-5-{(RS)-3-[(E)-2-(6-methoxy-[1,5]naphthyridin-4-yl)-vinyl]-pyrrolidin-1-ylmethyl}-2-oxo-oxazolidin-3-yl)-4H-benzo[1,4]thiazin-3-one]: no more than 0.031 µg/mL; for `COc1ccc2nccc(CCC3CCN(C[C@@H]4CN(c5ccc6c(c5)NC(=O)CS6)C(=O)O4)C3)c2n1` (mixture of isomers) [Example 10, 6-((R)-5-{(RS)-3-[2-(6-methoxy-[1,5]naphthyridin-4-yl)-ethyl]-pyrrolidin-1-ylmethyl}-2-oxo-oxazolidin-3-yl)-4H-benzo[1,4]thiazin-3-one]: no more than 0.031 µg/mL.
For `COc1ccc2nccc([C@@H](O)[C@H](O)C3CCN(C[C@@H]4CN(c5ccc6c(c5)NC(=O)CS6)C(=O)O4)C3)c2n1` (mixture of isomers) [Example 11, 6-((R)-5-{(RS)-3-[(1R,2R)-1,2-dihydroxy-2-(6-methoxy-[1,5]naphthyridin-4-yl)-ethyl]-pyrrolidin-1-ylmethyl}-2-oxo-oxazolidin-3-yl)-4H-benzo[1,4]thiazin-3-one], it took 0.125 µg/mL to inhibit growth (MIC).
Turning to `COc1cnc2cccc(C(O)C3(O)CCN(C[C@@H]4CN(c5ccc6c(c5)NC(=O)CS6)C(=O)O4)CC3)c2n1` (mixture of isomers) [Example 13, 6-((R)-5-{4-hydroxy-4-[(RS)-hydroxy-(3-methoxy-quinoxalin-5-yl)-methyl]-piperidin-1-ylmethyl}-2-oxo-oxazolidin-3-yl)-4H-benzo[1,4]thiazin-3-one], the MIC stood at 0.5 µg/mL.
The same measure for `COc1ccc2ncnc(OC3CCN(C[C@@H]4CN(c5cc6c(nn5)OCCO6)C(=O)O4)C3)c2c1` (mixture of isomers) [Example 33, (R)-3-(6,7-dihydro-[1,4]dioxino[2,3-c]pyridazin-3-yl)-5-[(RS)-3-(6-methoxy-quinazolin-4-yloxy)-pyrrolidin-1-ylmethyl]-oxazolidin-2-one]: 0.25 µg/mL; for `COc1ccc2ncnc(O[C@@H]3CN(C[C@@H]4CN(c5ccc6c(c5)NC(=O)CS6)C(=O)O4)C[C@H]3n3ccnn3)c2c1` (relative stereo) [Example 16, 6-{(R)-5-[(3R*,4R*)-3-(6-methoxy-quinazolin-4-yloxy)-4-[1,2,3]triazol-1-yl-pyrrolidin-1-ylmethyl]-2-oxo-oxazolidin-3-yl}-4H-benzo[1,4]thiazin-3-one]: no more than 0.031 µg/mL; for `COc1ccc2ncnc(O[C@@H]3CN(C[C@@H]4CN(c5ccc6c(c5)NC(=O)CS6)C(=O)O4)C[C@H]3N)c2c1` (relative stereo) [Example 18, 6-{(R)-5-[(3R*,4R*)-3-amino-4-(6-methoxy-quinazolin-4-yloxy)-pyrrolidin-1-ylmethyl]-2-oxo-oxazolidin-3-yl}-4H-benzo[1,4]thiazin-3-one]: no more than 0.031 µg/mL.
As to `COc1ccc2ncnc(O[C@H]3CN(C[C@@H]4CN(c5ccc6c(c5)NC(=O)CS6)C(=O)O4)C[C@H]3O)c2c1` (relative stereo) [Example 21, 6-{(R)-5-[(3R*,4S*)-3-hydroxy-4-(6-methoxy-quinazolin-4-yloxy)-pyrrolidin-1-ylmethyl]-2-oxo-oxazolidin-3-yl}-4H-benzo[1,4]thiazin-3-one], the MIC is no more than 0.031 µg/mL.

(Values after patent US9505750B2, “5-aminocyclylmethyl-oxazolidin-2-one derivatives” (priority 2007, dated 2016).)
